Data reported in the NIST ThermoML archive (doi:10.1016/j.tca.2017.03.018).

Key:
[1] = relative permittivity at zero frequency (dimensionless); conditions: 100 kPa, Liquid, time-domain reflectometry
[2] = relative permittivity at zero frequency (dimensionless); wn = mass fraction of the nth substance listed; conditions: 100 kPa, Liquid, time-domain reflectometry

C[S+](C)[O-] [dimethyl sulfoxide]
[1]
Conditions | relative permittivity at zero frequency
283.15 K | 50.58
288.15 K | 49.42
293.15 K | 47.81
298.15 K | 47.3

C[S+](C)[O-] [dimethyl sulfoxide] + OC[C@@H](O)[C@@H](O)CO
[2], w2 = 0
Conditions | relative permittivity at zero frequency
283.15 K | 50.58
288.15 K | 49.42
293.15 K | 47.81
298.15 K | 47.3

C[S+](C)[O-] [dimethyl sulfoxide] + OC[C@@H](O)[C@@H](O)[C@H](O)[C@H](O)CO
[2], w2 = 0
Conditions | relative permittivity at zero frequency
283.15 K | 50.58
288.15 K | 49.42
293.15 K | 47.81
298.15 K | 47.3

C[S+](C)[O-] [dimethyl sulfoxide] + OC[C@@H](O)[C@H](O)[C@@H](O)CO
[2], w2 = 0
Conditions | relative permittivity at zero frequency
283.15 K | 50.58
288.15 K | 49.42
293.15 K | 47.81
298.15 K | 47.3

OC[C@@H](O)[C@@H](O)[C@H](O)[C@H](O)CO [mannitol] + C[S+](C)[O-]
relative permittivity at zero frequency, [2]
Conditions | 283.15 K | 288.15 K | 293.15 K | 298.15 K
w1 = 0.05 | 52.35 | 50.82 | 49.49 | 48.89
w1 = 0.1 | 55.31 | 52.92 | 51.48 | 50.27
w1 = 0.15 | 56.79 | 55.37 | 53.15 | 52.18

OC[C@@H](O)[C@@H](O)CO [meso-1,2,3,4-butanetetrol] + C[S+](C)[O-]
relative permittivity at zero frequency, [2]
Conditions | w1 = 0.05 | w1 = 0.1 | w1 = 0.15 | w1 = 0.2 | w1 = 0.25
283.15 K | 51.26 | 54.06 | 55.7 | 57.23 | 58.96
288.15 K | 50.01 | 51.84 | 52.87 | 54.96 | 55.78
293.15 K | 48.57 | 50.49 | 51.35 | 53.36 | 54.3
298.15 K | 47.78 | 48.96 | 50.43 | 52.23 | 52.77

OC[C@@H](O)[C@H](O)[C@@H](O)CO [xylitol] + C[S+](C)[O-]
relative permittivity at zero frequency, [2]
Conditions | w1 = 0.05 | w1 = 0.1 | w1 = 0.15 | w1 = 0.2 | w1 = 0.25
283.15 K | 52.53 | 53.28 | 56.35 | 58.46 | 58.08
288.15 K | 50.33 | 51.31 | 53.72 | 55.28 | 55.18
293.15 K | 49.39 | 50.11 | 52.45 | 53.97 | 54.23
298.15 K | 48.1 | 49.63 | 51.6 | 53.03 | 53.69
